The text below walks through data of US8709999B2, “Substituted bicyclic HCV inhibitors” (Presidio Pharmaceuticals, Inc., priority 2009, dated 2014).

This test deals with HCV 1b_Huh-Luc/Neo-ET cell line (bicistronic genotype 1b replicon in Huh 7 cells). Put plainly: HCV replicon assay (luciferase readout). The class given is cell-based, HCV genotype 1b. The settings on record: Hepatitis C virus, Huh-7, 72 h, read-out: Inhibition of HCB genotype 1b. The method, then:
Biological activity of the compounds of the invention was determined using an HCV replicon assay. The HCV 1b_Huh-Luc/Neo-ET cell line persistently expressing a bicistronic genotype 1b replicon in Huh 7 cells was obtained from ReBLikon GMBH. This cell line was used to test compound inhibition using luciferase enzyme activity readout as a measurement of compound inhibition of replicon levels.
On Day 1 (the day after plating cells), each compound is added in triplicate to the cells. Plates are incubated for 72 h prior to determining luciferase levels. Enzyme activity was measured using a Bright-Glo Kit (cat. number E2620) manufactured by Promega Corporation. The following equation was used to generate a percent control value for each compound. % Control=(Compound Luciferase Level/Control Luciferase Level)*100
The EC50 value was determined using GraphPad Prism and the following equation: Y=Bottom asymptote+(Top asymptote−Bottom asymptote)/(1+10^((LogEC50−X)*HillSlope))
EC50 values of compounds are determined several times in the replicon assay to generate average EC50 values.
Background: Replicon systems follow genome replication, usually without infectious particles.
For `COCCOc1c(-c2ccc(-c3cnc([C@@H]4CCCN4C(=O)[C@@H](NC(=O)OC)C(C)(C)C)[nH]3)cc2)ccc(-c2cnc([C@@H]3CCCN3C(=O)[C@@H](NC(=O)OC)C(C)(C)C)[nH]2)c1OCCOC` [Compound 13], the EC50 fell in the range of 1 to 9.9 nM. For `COCCOc1cc(-c2cnc([C@@H]3CCCN3C(=O)[C@@H](NC(=O)OC)C3CCCCC3)[nH]2)ccc1-c1ccc(-c2cnc([C@@H]3CCCN3C(=O)[C@@H](NC(=O)OC)C3CCCCC3)[nH]2)cc1OCCOC` [Compound 9], the EC50 is below 1 nM.

`COCCOc1cc(-c2cnc([C@@H]3CCCN3C(=O)[C@H](C)NC(=O)OC)[nH]2)ccc1-c1ccc(-c2cnc([C@@H]3CCCN3C(=O)[C@H](C)NC(=O)OC)[nH]2)cc1OCCOC` [Compound 6]: the EC50 fell in the range of 10 to 999 nM.

For the compound `COCCOc1cc(-c2cnc([C@@H]3CCCN3C(=O)[C@@H](NC(=O)OC)C3CCCC3)[nH]2)ccc1-c1ccc(-c2cnc([C@@H]3CCCN3C(=O)[C@@H](NC(=O)OC)C3CCCC3)[nH]2)cc1OCCOC` [Compound 8], the EC50 was below 1 nM. The result for `COCCOc1c(-c2ccc(-c3cnc([C@@H]4CCCN4C(=O)[C@H](NS(C)(=O)=O)c4ccccc4)[nH]3)cc2)ccc(-c2cnc([C@@H]3CCCN3C(=O)[C@H](NS(C)(=O)=O)c3ccccc3)[nH]2)c1OCCOC` [Compound 17] reads below 1 nM.

As for `COCCOc1c(-c2ccc(-c3cnc([C@@H]4CCCN4C(=O)[C@@H](c4ccccc4)N(C)C)[nH]3)cc2)ccc(-c2cnc([C@@H]3CCCN3C(=O)[C@@H](c3ccccc3)N(C)C)[nH]2)c1OCCOC` [Compound 15], the EC50 was below 1 nM. Regarding `CC[C@H](C)[C@H](NC(=O)OC)C(=O)N1CCC[C@H]1c1ncc(-c2ccc(-c3ccc(-c4cnc([C@@H]5CCCN5C(=O)[C@@H](NC(=O)OC)C(C)C)[nH]4)cc3)c(OCCOC)c2OCCOC)[nH]1` [Compound 19], the EC50 is below 1 nM.

As to `COCCOc1c(-c2ccc(-c3cnc([C@@H]4CCCN4C(=O)[C@@H](c4ccccc4)N4CCCC4)[nH]3)cc2)ccc(-c2cnc([C@@H]3CCCN3C(=O)[C@@H](c3ccccc3)N3CCCC3)[nH]2)c1OCCOC` [Compound 16], the EC50 lay within 1 to 9.9 nM.

As for `COCCOc1cc(-c2cnc([C@@H]3CCCN3C(=O)[C@@H](NC(=O)OC)C(C)C)[nH]2)ccc1-c1ccc(-c2cnc([C@@H]3CCCN3C(=O)[C@@H](NC(=O)OC)C(C)C)[nH]2)cc1OCCOC` [Compound 1], the EC50 is below 1 nM. In the case of `COCCOc1c(-c2ccc(-c3cnc([C@@H]4CCCN4C(=O)[C@@H](NC(=O)OC)C(C)C)[nH]3)cc2)ccc(-c2cnc([C@@H]3CCCN3C(=O)[C@H](C)NC(=O)OC)[nH]2)c1OCCOC` [Compound 18] it was 1 to 9.9 nM. As for `COCCOc1c(-c2ccc(-c3cnc([C@@H]4CCCN4C(=O)[C@@H](NC(=O)OC)C4CCOCC4)[nH]3)cc2)ccc(-c2cnc([C@@H]3CCCN3C(=O)[C@@H](NC(=O)OC)C3CCOCC3)[nH]2)c1OCCOC` [Compound 14], the EC50 is 1 to 9.9 nM. The result for `CC[C@H](C)[C@H](NC(=O)OC)C(=O)N1CCC[C@H]1c1ncc(-c2ccc(-c3ccc(-c4cnc([C@@H]5CCCN5C(=O)[C@@H](NC(=O)OC)[C@@H](C)CC)[nH]4)c(OCCOC)c3OCCOC)cc2)[nH]1` [Compound 3] reads below 1 nM; that for `CC[C@H](C)[C@H](NC(=O)OC)C(=O)N1CCC[C@H]1c1ncc(-c2ccc(-c3ccc(-c4cnc([C@@H]5CCCN5C(=O)[C@@H](NC(=O)OC)[C@@H](C)CC)[nH]4)cc3OCCOC)c(OCCOC)c2)[nH]1` [Compound 7], below 1 nM; that for `COCCOc1c(-c2ccc(-c3cnc([C@@H]4CCCN4C(=O)[C@@H](NC(=O)OC)C4CCCC4)[nH]3)cc2)ccc(-c2cnc([C@@H]3CCCN3C(=O)[C@@H](NC(=O)OC)C3CCCC3)[nH]2)c1OCCOC` [Compound 4], below 1 nM. In the case of `COCCOc1c(-c2ccc(-c3cnc([C@@H]4CCCN4C(=O)[C@@H](NC(=O)OC)C(C)C)[nH]3)cc2)ccc(-c2cnc([C@@H]3CCCN3C(=O)[C@@H](NC(=O)OC)C(C)C)[nH]2)c1OCCOC` [Compound 2] it was below 1 nM; in that of `COCCOc1c(-c2ccc(-c3cnc([C@@H]4CCCN4C(=O)[C@H](C)NC(=O)OC)[nH]3)cc2)ccc(-c2cnc([C@@H]3CCCN3C(=O)[C@H](C)NC(=O)OC)[nH]2)c1OCCOC` [Compound 10], below 1 nM; in that of `COCCOc1c(-c2ccc(-c3cnc([C@@H]4CCCN4C(=O)[C@H](COC)NC(=O)OC)[nH]3)cc2)ccc(-c2cnc([C@@H]3CCCN3C(=O)[C@H](COC)NC(=O)OC)[nH]2)c1OCCOC` [Compound 11], 10 to 999 nM.

Consider `COCCOc1c(-c2ccc(-c3cnc([C@@H]4CCCN4C(=O)[C@@H](NC(=O)OC)[C@@H](C)OC)[nH]3)cc2)ccc(-c2cnc([C@@H]3CCCN3C(=O)[C@@H](NC(=O)OC)[C@@H](C)OC)[nH]2)c1OCCOC` [Compound 12], for which the EC50 was in the range of 1 to 9.9 nM.
